Data taken from patent publication US11607422B2, “Uttroside B and derivatives thereof as therapeutics for hepatocellular carcinoma” (Rajiv Gandhi Centre for Biotechnology, an Autonomous …, priority 2016, dated 2023).

Experiments:
HepG2 cells = assay: MTT cell viability assay in HepG2 cells; type: cell-based, human; conditions: 72 h, MTT assay; read-out: IC50, cytotoxicity towards HepG2 cells
Description: Stocks of crude extracts and isolated compound of S. nigrum was prepared in DMSO for the in vitro studies and stored at −20° C. The DMSO concentration in all studies, including controls, was ≤0.2%. Cell viability assay was performed after 72 h of drug treatment while whole cell lysate preparation and cell cycle analysis were done after 24 h and 48 h of drug treatment. For studying NF-κB and AP-1, Uttroside B was incubated for 2 h before extraction.
MTT [3-(4,5-dimethylthiazole-2-yl)-2,5-diphenyltetrazolium bromide] assay is a standard colorimetric assay, suitable for analyzing proliferation, viability, and cytotoxicity. Briefly, the HepG2 cells were seeded in 96-well plates (2000 cells/well). […] Fresh media containing 25 μL of MTT solution (5 mg/mL in PBS) and 75 μL of complete medium was added to the wells and incubated for 2 h. At the end of incubation, lysis buffer (20% sodium dodecyl sulphate in 50% dimethyl formamide)was added to the wells (0.1 mL/well) and incubated for another 1 h at 37° C. At the end of incubation, the optical density was measured at 570 nm using ELISA plate reader (Bio-Rad). The relative cell viability in percentage was calculated as (A570 of treated samples/A570 of untreated samples)×100. The IC50 values were extrapolated from polynomial regression analysis of study data.^17

[1] = system: mTOR pathway in HepG2 cells; assay: Western blot of mTOR and downstream target phosphorylation; type: cell-based, human
Description: FIGS. 4A-4E are images showing Uttroside B inhibits MAPK and mTOR signaling, some of the crucial survival signals in liver cancer. […] HepG2 cells were treated with Uttroside B for different time intervals (0-240 min) and the whole cell lysate was resolved on a 10% gel and immunoblotted against phospho-ERK1/2 and phospho-Akt antibodies. Taxol was used as a positive control. […] HepG2 cells were treated with Uttroside B at different time intervals and the whole cell lysate was resolved on an 8% gel and immunoblotted against phospho-mTOR (2448) and phospho-mTOR (2481) antibodies.
Western blot analysis. Approximately 0.5×10^6 cells were grown on 60 mm culture plates and exposed to drugs as indicated for the desired time. The cells were then scraped out, washed in ice cold 1× PBS and pelleted down at 13000 rpm for 2 min. […]
Uttroside B inhibits mTOR signaling, a crucial survival signal in liver cancer. […] Concomitantly, the phosphorylation of p70S6 kinase and 4E-BP-1, two m-TOR substrates whose phosphorylation can be considered as the read out of m-TOR activity, was found reduced in response to Uttroside B-treatment. […]

For `C[C@H](CC[C@@]1(O)O[C@H]2C[C@H]3[C@@H]4CC[C@H]5C[C@@H](O[C@@H]6O[C@H](CO)[C@H](O[C@@H]7O[C@H](CO)[C@@H](O)[C@H](O[C@@H]8OC[C@@H](O)[C@H](O)[C@H]8O)[C@H]7O[C@@H]7O[C@H](CO)[C@@H](O)[C@H](O)[C@H]7O)[C@H](O)[C@H]6O)CC[C@]5(C)[C@H]4CC[C@]3(C)[C@H]2[C@@H]1C)CO[C@@H]1O[C@H](CO)[C@@H](O)[C@H](O)[C@H]1O` [Uttroside B], the IC50 (HepG2 cells) was 500 nM, the “phosphorylation of p70S6 kinase and 4E-BP-1” value [1] was “found reduced” and the “phosphorylation of mTOR” value ([1]; different time intervals) was “time dependent decrease in the phosphorylation of m-TOR at 2448 and 2481 phosphorylation sites”.
